Assay results reported in the NIST ThermoML archive (doi:10.1016/j.jct.2016.10.009).

Details: Liquid, Vibrating tube method

CCC(C)O (configuration not stated) [butan-2-ol]
mass density [kg/m3]
Details | 293.15 K | 298.15 K | 313.15 K | 333.15 K | 353.19 K | 373.24 K | 393.28 K
100 kPa | 806.7 | 802.6 | 789.6 | 770.8 | 750.3 | – | –
1000 kPa | 807.4 | 803.3 | 790.3 | 771.8 | 751.4 | 729.1 | 704.8
5000 kPa | 810.4 | 806.4 | 793.7 | 775.7 | 756 | 734.5 | 711.3
10000 kPa | 814 | 810.1 | 797.8 | 780.3 | 761.3 | 740.8 | 718.8
15000 kPa | 817.4 | 813.7 | 801.6 | 784.7 | 766.4 | 746.6 | 725.6
20000 kPa | 820.7 | 817 | 805.3 | 788.9 | 771 | 751.9 | 731.7
25000 kPa | 823.9 | 820.2 | 808.6 | 792.7 | 775.4 | 757 | 737.4
30000 kPa | 826.9 | 823.4 | 812.1 | 796.4 | 779.5 | 761.6 | 742.7
35000 kPa | 829.8 | 826.4 | 815.3 | 800 | 783.5 | 766.1 | 747.8
40000 kPa | 832.7 | 829.2 | 818.4 | 803.5 | 787.2 | 770.3 | 752.5
45000 kPa | 835.4 | 832 | 821.3 | 806.6 | 790.8 | 774.4 | 757
50000 kPa | 838.1 | 834.7 | 824.3 | 809.8 | 794.4 | 778.1 | 761.2
55000 kPa | 840.6 | 837.4 | 827.1 | 812.8 | 797.7 | 781.8 | 765.4
60000 kPa | 843.2 | 839.9 | 829.8 | 815.8 | 801 | 785.3 | 769.2
65000 kPa | 845.6 | 842.4 | 832.5 | 818.7 | 804.1 | 788.8 | 772.9
70000 kPa | 848 | 844.8 | 835 | 821.4 | 807.2 | 792.1 | 776.6
80000 kPa | 852.6 | 849.5 | 839.9 | 826.8 | 812.9 | 798.4 | 783.4
90000 kPa | 857.1 | 854.1 | 844.7 | 831.9 | 818.3 | 804.3 | 789.8
100000 kPa | 861.2 | 858.3 | 849.1 | 836.7 | 823.5 | 809.8 | 795.8
110000 kPa | 865.3 | 862.4 | 853.5 | 841.3 | 828.5 | 815.1 | 801.5
120000 kPa | 869.2 | 866.3 | 857.6 | 845.6 | 833.1 | 820.1 | 806.8
130000 kPa | 873 | 870.1 | 861.5 | 849.9 | 837.6 | 824.9 | 811.9
140000 kPa | 876.6 | 873.9 | 865.4 | 853.9 | 842 | 829.5 | 816.8

CC(C)OC(C)C [diisopropyl ether]
mass density [kg/m3]
Details | 293.15 K | 298.15 K | 313.15 K | 333.15 K | 353.19 K | 373.24 K | 393.28 K
100 kPa | 723.5 | 718.3 | 702.4 | 680.5 | – | – | –
1000 kPa | 724.6 | 719.6 | 703.8 | 682.1 | 659.5 | 635.6 | 609.5
5000 kPa | 729.4 | 724.5 | 709.4 | 688.9 | 667.6 | 645.5 | 622.1
10000 kPa | 734.9 | 730.2 | 715.8 | 696.4 | 676.5 | 656.1 | 635
15000 kPa | 740 | 735.6 | 721.7 | 703.2 | 684.4 | 665.3 | 645.8
20000 kPa | 744.8 | 740.5 | 727.2 | 709.4 | 691.5 | 673.5 | 655.2
25000 kPa | 749.4 | 745.2 | 732.1 | 715.1 | 698 | 680.8 | 663.5
30000 kPa | 753.7 | 749.6 | 737.1 | 720.5 | 704 | 687.6 | 671.1
35000 kPa | 757.7 | 753.7 | 741.6 | 725.6 | 709.7 | 693.8 | 677.9
40000 kPa | 761.6 | 757.8 | 745.9 | 730.3 | 714.8 | 699.6 | 684.3
45000 kPa | 765.3 | 761.6 | 750 | 734.8 | 719.7 | 705 | 690.2
50000 kPa | 768.9 | 765.2 | 753.9 | 739.1 | 724.6 | 710.1 | 695.8
55000 kPa | 772.4 | 768.8 | 757.7 | 743.1 | 728.9 | 714.9 | 701.1
60000 kPa | 775.7 | 772.2 | 761.3 | 747.1 | 733.2 | 719.5 | 705.9
65000 kPa | 778.9 | 775.4 | 764.8 | 750.9 | 737.2 | 723.9 | 710.6
70000 kPa | 782 | 778.6 | 768.1 | 754.4 | 741.1 | 728.1 | 715.2
80000 kPa | 787.9 | 784.6 | 774.4 | 761.3 | 748.4 | 735.9 | 723.5
90000 kPa | 793.5 | 790.3 | 780.5 | 767.7 | 755.4 | 743.2 | 731.3
100000 kPa | 798.8 | 795.7 | 786.1 | 773.7 | 761.6 | 750 | 738.4
110000 kPa | 803.9 | 800.8 | 791.4 | 779.4 | 767.8 | 756.3 | 745.3
120000 kPa | 808.7 | 805.6 | 796.5 | 784.7 | 773.4 | 762.3 | 751.4
130000 kPa | 813.2 | 810.3 | 801.4 | 789.9 | 778.8 | 768 | 757.4
140000 kPa | 817.6 | 814.6 | 806 | 794.8 | 784 | 773.3 | 763.1
